Patent US20140343324A1, “SYNTHETIC MATRIX FOR CONTROLLED CELL INGROWTH AND TISSUE REGENERATION” (Eidgenossische Technische Hochschule Zürich, priority 2001, published 2014)

System: human foreskin fibroblasts (hFFs)
Assay: Three-dimensional cell invasion from hFF-fibrin clusters into PEG-based hydrogels
Details: compared with collagen type I derived GCRDGPQGIAGQDRCG
Procedure: Near-confluent cultures of human foreskin fibroblasts (hFFs) were trypsinized, centrifuged and resuspended in 2% (m/v) fibrinogen from human plasma (Fluka, Switzerland) in sterile phosphate buffered solution (PBS) to a concentration of […]. To induce gelation of the hFF-fibrinogen suspension, thrombin (Sigma T-6884, Switzerland) and Ca^++ were added to final concentrations of 2 NIH units/mL and 2.5 mM, respectively, and rapidly mixed with the cell suspension. Prior to gelation, 2 μL droplets of this cell-fibrinogen precursor were gelled on microscope slides for ca. 15 min. at 37° C. The hFF-fibrin clusters were embedded inside 25 μl PEG-based hydrogels by placing three to four clusters into precursor solution prior to gelation. Such hFF-fibrin clusters embedded inside the PEG-based hydrogels were cultured serum-containing DMEM in the 12-well tissue culture plates for up to 30 days. Cell invasion from the cluster into the synthetic gel matrix was imaged and recorded with their center plane in focus. To quantify the penetration depth of the outgrowth, the area of the original hFF-fibrin cluster was measured in the center plane, as was the area of the hFF outgrowth, defined by the tips of the hFF branches in the center plane of focus. […]

GCRDGPQGIWGQDRCG (Ac-GCRDGPQGIWGQDRCG-NH2; cysteine pairing not given here) [synthetic MMP substrate capable of forming a hydrogel by Michael-type addition]
degradation of MMP substrate in hydrogel: degrades significantly faster
